The values that follow come from US8778966B2, “Quinolinone derivatives as PARP and tank inhibitors” (Janssen Pharmaceutica, NV, priority 2007, dated 2014).

The assay concerns tubulin. Briefly: Tubulin polymerization assay. The class given is biochemical. The arrangement: key: a compound showing 0 to 50% inhibition at 20 μM is reported as score 1; Score 2 compounds are defined as compound showing more than 50% inhibition at 20 μM and less than 50% inhibition at 5 μM; a compound showing more than 50% inhibition at 5 μM is reported as score 3. The following applies: tested at 20 μM and 5 μM. The essentials: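 Cytoskeleton kit tubulin was run in a 10 µl final volume at 37 °C, with fluorescence read every minute for 1 h. Polymerization was taken as the maximum slope (4-point linear regression) and expressed as % of no-compound control. Compounds were tested at 20 µM, then at 5 µM if inhibition exceeded 50%, and scored by % inhibition.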

Structures are written as SMILES.

In turn, `CCc1cc2ccc(C(C)(C#N)Cc3nc4ccccc4n3C)cc2[nH]c1=O` (stereo not drawn) [Compound 338] showed a tubulin polymerisation score of 2. The same measure for `CCc1cc2ccc(C(C)(C#N)Cc3ccc(C)nc3)cc2[nH]c1=O` (stereo not drawn) [Compound 327]: 1 (a compound showing 0 to 50% inhibition at 20 μM is reported as score 1). Under `CCc1cc2ccc(C(C)(C#N)Cc3cccc(OC)n3)cc2[nH]c1=O` (stereo not drawn) [Compound 353] stands 2. Under `CCc1cc2ccc(C(C)(C#N)Cc3nc(Cl)cc(N(C)C)n3)cc2[nH]c1=O` (stereo not drawn) [Compound 359] stands 2; under `COc1cc(OC)nc(CC(C)(C#N)c2ccc3cc(C)c(=O)[nH]c3c2)n1` (stereo not drawn) [Compound 308], 2; under `CCc1cc2ccc([C@@](C)(C#N)Cc3cccc(C#N)c3)cc2[nH]c1=O` (single isomer, unassigned) [Compound 268], 1 (a compound showing 0 to 50% inhibition at 20 μM is reported as score 1). Consider `C#Cc1cccc(C[C@](C)(C#N)c2ccc3cc(CC)c(=O)[nH]c3c2)c1` [Compound 2], for which the tubulin polymerisation score is given as 1 (a compound showing 0 to 50% inhibition at 20 μM is reported as score 1). For `CCc1cc2ccc(C(C)(C#N)Cc3cccc(OCCO)c3)cc2[nH]c1=O` (stereo not drawn) [Compound 262], the tubulin polymerisation score came out at 2.

Turning to `CCc1cc2ccc(C(C)(C#N)Cc3cccc(C#N)n3)cc2[nH]c1=O` (stereo not drawn) [Compound 329], the tubulin polymerisation score was 3 (a compound showing more than 50% inhibition at 5 μM is reported as score 3). The same measure for `Cc1cc2ccc([C@](C)(C#N)Cc3cccc(C#N)c3)cc2[nH]c1=O` [Compound 36]: 1 (a compound showing 0 to 50% inhibition at 20 μM is reported as score 1); for `CCc1cc2ccc(C(C)(C#N)Cc3cc(OC)nc(OC)n3)cc2[nH]c1=O` (stereo not drawn) [Compound 358]: 2; for `CCc1cc2ccc([C@](C)(C#N)Cc3cccc(C#N)c3)cc2[nH]c1=O` (single isomer, unassigned) [Compound 269]: 2.

For `COc1ccccc1-c1nc(CC(C)(C#N)c2ccc3cc(C)c(=O)[nH]c3c2)no1` (stereo not drawn) [Compound 33], the tubulin polymerisation score was 1 (a compound showing 0 to 50% inhibition at 20 μM is reported as score 1). The same measure for `CCc1cc2ccc(C(C#N)(CC)Cc3ccccc3)cc2[nH]c1=O` (stereo not drawn) [Compound 32]: 1 (a compound showing 0 to 50% inhibition at 20 μM is reported as score 1). Under `CCc1cc2ccc(C(C)(C#N)Cc3cccc(C#N)n3)cc2[nH]c1=O` (single isomer, unassigned) [Compound 206] stands 1 (a compound showing 0 to 50% inhibition at 20 μM is reported as score 1); under `CCc1cc2ccc(C(C)(C#N)Cc3cccc(C#N)n3)cc2[nH]c1=O` (single isomer, unassigned) [Compound 207], 3 (a compound showing more than 50% inhibition at 5 μM is reported as score 3); under `CCc1cc2ccc(C(C)(C#N)Cc3cccc(CO)n3)cc2[nH]c1=O` (stereo not drawn) [Compound 345], 2. The same measure for `C#Cc1cccc(C[C@@](C)(C#N)c2ccc3cc(CC)c(=O)[nH]c3c2)c1` [Compound 3]: 2; for `Cc1cc2ccc(C(C)(C#N)Cc3cccc(Cl)c3)cc2[nH]c1=O` (stereo not drawn) [Compound 37]: 1 (a compound showing 0 to 50% inhibition at 20 μM is reported as score 1); for `CCc1cc2ccc(C(C)(C#N)Cc3cccc(CN)c3)cc2[nH]c1=O` (stereo not drawn) [Compound 290]: 1 (a compound showing 0 to 50% inhibition at 20 μM is reported as score 1). `CCc1cc2ccc(C(C)(C#N)Cc3nccc(OC)n3)cc2[nH]c1=O` (stereo not drawn) [Compound 360] showed a tubulin polymerisation score of 2.
